pEC50, pIC50: −log10 of the molar value. Read-outs that look alike come from different tables or passages of the source. Square brackets hold non-standard residues; d marks the D form. Peptide text beside a SMILES is read from it. NMeTrp(1-(4-Br-benzyl)) = CN[C@@H](Cc1cn(Cc2ccc(Br)cc2)c2ccccc12)C(=O)O; Butanoyl(2R-oxy,4-CN) = N#CCC[C@@H](O)C(=O)O; Abu(4,4,4-F3) = N[C@@H](CC(F)(F)F)C(=O)O; NMeL = CN[C@@H](CC(C)C)C(=O)O; NMeA = CN[C@@H](C)C(=O)O
Columns and labels:
Type in all cases: cell-based
[1] = test system: BT474 breast tumor cell line; assay: BT474 assay (Alamar blue); conditions: Homo sapiens, BT-474, 72 h
Procedure: BT474 is a human breast tumor cell line. JJN3 is a human plasma cell leukemia cell line. […] Cells were seeded at 100 000 cells/mL. Aliquots of 5000 cells (50 μL) were added to each well in black, clear bottom 96-well plates. Compounds or control (50 uL of 1% DMSO in cell culture medium) were added to the cells to the indicated final concentrations and cells were incubated for 72 h (unless otherwise specified). After incubation was complete, Alamar blue (10 uL of a 1 mg/mL solution) was added to each well and plates were incubated for 5 h. Fluorescence was then measured (excitation 545 nm, emission 590 nm) and is reported as […] normalized to DMSO control.

[2] = test system: PD1-ss+10aa/Gaussia Luciferase; assay: Dox induced PD1-ss-Gluc assay
Procedure, shortened: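 Stable Flp-In 293 T-REx line expressing doxycycline-inducible Gaussia luciferase fused to the PD1 signal sequence plus 10 amino acids. Cells plated the day before, then exposed to compound dilutions in DMSO/media containing doxycycline at 37 °C, 5% CO2.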

[3] = test system: VCAMss+10aa/Gaussia Luciferase; assay: VCAM-ss-Gluc assay (constitutively active or Dox induced); conditions: Flp-In 293 T-REx cells, 24 hours
Procedure, shortened: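 Stable cell lines secreting a VCAM signal sequence+10aa/Gaussia luciferase fusion, expressed either constitutively or under T-REx doxycycline control. Cells plated the day before; compound dilutions in DMSO/media (with doxycycline for the induced line) added and incubated at 37° C, 5% CO2.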

[4] = test system: JJN3 plasma cell leukemia cell line; assay: JJN-3 assay (Alamar blue); conditions: Homo sapiens, 72 h
Procedure, shortened: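 For both lines, 5000 cells/well were exposed to compound or a 1% DMSO-medium control for 72 h unless otherwise specified. Signal was normalized to the DMSO control.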

HER3ss-Gluc = assay: HER3ss assay
Procedure, shortened: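 HEK-293T T-REx cells were transiently transfected with HER3 signal sequence (plus four mature-domain residues) fused upstream of mature Gaussia luciferase. Cells were induced with doxycycline (1 μg/ml) and exposed to increasing compound concentrations for 24 h, then secreted luciferase in the conditioned medium was read by luminescence.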

[5] = test system: U266B1 multiple myeloma cell line; assay: U266 assay (cell viability, Celltiter-Glo); conditions: Homo sapiens, U-266; 48 hours, cell viability
Procedure: Cells were plated in 384-well tissue culture plates and treated with compound dilutions in DMSO/media. Plates were incubated at 37° C., 5% CO2 for 48 hours. After 48 hours, Celltiter-Glo@ (Promega) was added to each well and luciferase signal was quantified using Tecan Infinite M1000 Pro for cell viability determination.

[6] = test system: TNFα-FL/Gaussia Luciferase; assay: Dox induced TNFα-FL-Gluc assay
Procedure, shortened: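 Stable Flp-In 293 T-REx line expressing full-length TNFα (aa 1-233) fused at its C-terminus to Gaussia luciferase under doxycycline-inducible control. Cells plated the day before, then given compound dilutions in DMSO/media containing doxycycline and incubated at 37 °C, 5% CO2.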

[7] = test system: Prl-ss+10aa/Gaussia Luciferase; assay: Prl-ss-Gluc assay (constitutively active or 24 hr Dox inducible)
Procedure, shortened: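 Stable Flp-In 293 T-REx lines express Prl signal sequence+10aa fused to Gaussia luciferase, either constitutively (pcDNA5/FRT) or under the T-REx promoter (pcDNA5/FRT/TO). Cells plated the day before; compounds in DMSO/media (with doxycycline for the inducible line, 24 h) incubated at 37 °C, 5% CO2.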

[8] = test system: NCI-H929 multiple myeloma cell line; assay: H929 assay (cell viability, Celltiter-Glo); conditions: Homo sapiens, read-out: H929 EC50
Procedure, shortened: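 Cells plated in RPMI 1640 with 10% FBS and 2 mM glutamine, treated with compound dilutions in DMSO/media. Incubation 48 h at 37° C, 5% CO2. Viability from luciferase luminescence signal.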

[9] = Flp-In 293 T-REx cells, doxycycline, 24 hours; read-out: PD1ss Gluc IC50
[10] = HEK-293T T-rex cells, transient transfection, doxycycline, 24 h; read-out: HER3 ss IC50
[11] = Flp-In 293 T-REx cells, doxycycline, 24 hours; read-out: TNFa FL Gluc IC50
[12] = Flp-In 293 T-REx cells, 24 hours; read-out: Prl IC50
[13] = NCI-H929, 48 hours, cell viability

SMILES | pEC50 [1] | pIC50 [2, 9] | pIC50 [3] | pEC50 [4] | pIC50 (HER3ss-Gluc; [10]) | pEC50 [5] | pIC50 [6, 11] | pIC50 [7, 12] | pEC50 [8, 13] | pIC50 ([2]; read-out: PD1ss Gluc IC50; Flp-In 293 T-REx cells, doxycycline, 24 hours) | pIC50 (HER3ss-Gluc; read-out: HER3 ss IC50; HEK-293T T-rex cells, transient transfection, doxycycline, 24 h) | pIC50 ([6]; read-out: TNFa FL Gluc IC50; Flp-In 293 T-REx cells, doxycycline, 24 hours) | pIC50 ([7]; read-out: Prl IC50; Flp-In 293 T-REx cells, 24 hours) | pEC50 ([8]; NCI-H929, 48 h)
CC(C)C[C@@H]1NC(=O)[C@H](Cc2cn(Cc3ccc(C(F)(F)F)cc3)c3ccccc23)N(C)C(=O)[C@H](CC(C)C)NC(=O)[C@H](CC(C)C)N(C)C(=O)[C@H](CC(C)C)NC(=O)[C@@H](CCC#N)OC(=O)[C@H](C)N(C)C1=O [C-42] (HELM PEPTIDE1{L.[meA].[N#CCC[C@@H](O[*:1])C(=O)[*:2]].L.[meL].L.[CN([C@@H](Cc1cn(Cc2ccc(C(F)(F)F)cc2)c2ccccc12)C(=O)[*:2])[*:1]]}$PEPTIDE1,PEPTIDE1,1:R1-7:R2$$$V2.0) | 5.48 | 7.43 | 6.78 | 6.05 | – | 4.70 | 6.45 | 5.26 | 5.40 | – | – | – | – | –
CCCC[C@@H]1NC(=O)[C@@H](CCC#N)OC(=O)[C@H](C)N(C)C(=O)[C@H](CC(C)C)NC(=O)[C@H](Cc2cn(Cc3ccc(Br)cc3)c3ccccc23)N(C)C(=O)[C@H](CC(C)C)NC(=O)[C@H](CC(C)C)N(C)C1=O [C-40] (HELM PEPTIDE1{L.[meA].[N#CCC[C@@H](O[*:1])C(=O)[*:2]].[Nle].[meL].L.[CN([C@@H](Cc1cn(Cc2ccc(Br)cc2)c2ccccc12)C(=O)[*:2])[*:1]]}$PEPTIDE1,PEPTIDE1,1:R1-7:R2$$$V2.0) | 5.67 | 7.32 | 6.91 | 6.49 | 6.10 | – | 6.74 | 5.49 | 5.64 | – | – | – | – | –
CC(C)C[C@@H]1NC(=O)[C@H](Cc2cn(Cc3ccc(Br)cc3)c3ccccc23)N(C)C(=O)[C@H](CC(C)C)NC(=O)[C@H](CC(C)C)N(C)C(=O)[C@H](CC(F)(F)F)NC(=O)[C@@H](CCC#N)OC(=O)[C@H](C)N(C)C1=O [C-41] (cyclo(L[NMeA][Butanoyl(2R-oxy,4-CN)][Abu(4,4,4-F3)][NMeL]L[NMeTrp(1-(4-Br-benzyl))])) | 6.08 | – | 7.49 | 7.14 | – | – | – | – | – | 7.72 | 7.64 | 7.11 | 5.99 | 5.89

Second part, led by results:

pEC50 [1] | pIC50 [2, 9] | pIC50 [3] | pEC50 [4] | pIC50 (HER3ss-Gluc; [10]) | pEC50 [5] | pIC50 [6, 11] | pIC50 [7, 12] | pEC50 [8, 13] | SMILES | pIC50 ([2]; read-out: PD1ss Gluc IC50; Flp-In 293 T-REx cells, doxycycline, 24 hours) | pIC50 (HER3ss-Gluc; read-out: HER3 ss IC50; HEK-293T T-rex cells, transient transfection, doxycycline, 24 h) | pIC50 ([6]; read-out: TNFa FL Gluc IC50; Flp-In 293 T-REx cells, doxycycline, 24 hours) | pIC50 ([7]; read-out: Prl IC50; Flp-In 293 T-REx cells, 24 hours) | pEC50 ([8]; NCI-H929, 48 h)
6.20 | 8.10 | 6.64 | 7.15 | 7.51 | 5.16 | 7.36 | 5.95 | 6.13 | CC(C)C[C@@H]1NC(=O)[C@H](Cc2cn(Cc3ccc(F)cc3)c3ccccc23)N(C)C(=O)[C@H](CC(C)C)NC(=O)[C@H](CC(C)C)N(C)C(=O)[C@H](CC(C)C)NC(=O)[C@@H](CCC#N)OC(=O)[C@H](C)N(C)C1=O [C-12] (HELM PEPTIDE1{L.[meA].[N#CCC[C@@H](O[*:1])C(=O)[*:2]].L.[meL].L.[CN([C@@H](Cc1cn(Cc2ccc(F)cc2)c2ccccc12)C(=O)[*:2])[*:1]]}$PEPTIDE1,PEPTIDE1,1:R1-7:R2$$$V2.0) | – | – | – | – | –
6.07 | 7.74 | 6.31 | 6.63 | 7.29 | 5.10 | 6.97 | 6.44 | 5.89 | CC(C)C[C@@H]1NC(=O)[C@H](Cc2cn(Cc3ccc(Br)cc3)c3ccccc23)N(C)C(=O)[C@H](CC(C)C)NC(=O)[C@H](CC(C)C)N(C)C(=O)[C@H](CC(C)C)NC(=O)[C@@H](CCC#N)OC(=O)[C@H](C)N(C)C1=O [C-14] (HELM PEPTIDE1{L.[meA].[N#CCC[C@@H](O[*:1])C(=O)[*:2]].L.[meL].L.[CN([C@@H](Cc1cn(Cc2ccc(Br)cc2)c2ccccc12)C(=O)[*:2])[*:1]]}$PEPTIDE1,PEPTIDE1,1:R1-7:R2$$$V2.0) | – | – | – | – | –

Reference: patent publication US11339193B2, “CDP protein secretion inhibitors” (KEZAR LIFE SCIENCES, priority 2018, dated 2022)
